{
  "source": "patent US20070141072A1",
  "about": "“Use of multifunctional transcription factor yin-yang-1 and variants thereof for treating illnesses, especially type 1 diabetes” (ERNST-MORITZ-ARNDT-UNIVERSITAT GREIFSWALD, priority 2002, published 2007)",
  "test_system": "calbindin-D28k",
  "assay": "Calbindin-D28k protein expression in isolated islets of Langerhans, Western blot",
  "format": "cell-based, rat",
  "details": "increasing calcium concentration in the medium",
  "excerpt": "There were however significant differences in protein expression using Western blot analysis. The calcium-binding protein, calbindin-D28k, was already twice as high in BB.6S rat islets under basal conditions as that of BB/OK rats. […] Calbindin-D28k is a cytosolic calcium-binding protein, which is primarily expressed in the kidney, but also in the pancreas and brain, and which can prevent apoptotic (gene controlled) cell death (41, 42). In functional terms it is supposed that calbindin-D28k is involved in regulation of calcium reabsorption.\nCalbindin-D28k protein expression using Western blot analysis under basal conditions and with increasing calcium concentration in the medium.",
  "data": [
    {"smiles": "[Ca+2]", "note": "[calcium]", "values": [
      {"measurement": "protein expression of calbindin-D28k", "setting": "BB.6S islets", "value": "clearly increased"},
      {"measurement": "protein expression of calbindin-D28k", "setting": "BB/OK islets", "value": "almost uninfluenced"}
    ]}
  ]
}
